Structures are written as SMILES. Where only a bound is given, the exact number is not on record here.

Series [1] in a line: LC-MS/MS quantitation of drugs in single-point patient plasma samples (therapeutic drug monitoring). In kind it is in vivo, human. The procedure: Samples from ten women (ages 35 to 78, median 50.5 years) receiving regular treatment with a combination of a CDK4/6 inhibitor (PAL, RIB or ABE) and endocrine therapy (ANA, LET, FUL or exemestane, EXE) were obtained and analyzed using this LC-MS method. The samples were mostly taken in the elimination phase, during the patients’ regular visit to the hospital before the next dose administration, except in the case of patient 4 (sampling 1 h after dose administration). The aromatase inhibitors and ABE are continuously administered as single daily doses, FUL is a once-monthly intramuscular injection, and the dosing regimen of PAL and RIB involves a week off treatment every 21 days to minimize treatment-induced neutropenia.
The samples were analyzed against freshly prepared calibration curves. The results are listed in Table 7, while the accompanying chromatograms and mass spectra are included in the Supplementary Materials, Section 1, Figures S1–S29.
Healthy and patient blood samples were collected and pre-treated at the University Hospital Centre Zagreb, with signed informed consent. Patients receiving a combination of a CDK4/6 inhibitor and endocrine therapy as regular treatment for at least 4 months were enrolled.
Whole blood was collected in containers with K2-EDTA anticoagulant and centrifuged for 10 min at 1500 g; the supernatant was then withdrawn and stored at −18 °C (blank plasma) or −80 °C (patients’ plasma). Hemolyzed plasma was obtained by briefly freezing a whole blood sample at −18 °C before continuing with the procedure.
Calibration and QC samples were prepared by diluting 5 µL of the appropriate working solutions of the analytes with 45 µL of blank plasma in 1.5 mL polypropylene centrifuge tubes. In case of patient sample analysis, an aliquot of 50 µL of patient plasma was used. Proteins were precipitated by adding 200 µL of ACN, after which the samples were vortex-mixed for 10 s and centrifuged at 2000 g for 5 min. The resulting supernatant was collected and 200 µL was evaporated to dryness in a vacuum evaporator at room temperature. The dry residue was dissolved in 40 µL of 65% methanol, while 5 µL was injected into the chromatographic system.

The conditions of series [2]: plasma; cited from earlier work.
Series [3] in a line: Stability of the analytes in plasma (bench top, autosampler, freeze-thaw, long-term). It is filed as physicochemical, human. The conditions noted are these: for Stability Bias (%) 1 FT Cycle (30 min, −18–25 °C) / Stability Bias (%) 2 FT Cycles (30 min, −18–25 °C) / Stability Bias (%) 3 FT Cycles (30 min, −18–25 °C) / Stability Bias (%) Long-Term (2 Weeks, −18 °C): plasma; for Stability Bias (%) 1 FT Cycle (30 min, −18–25 °C) / Stability Bias (%) 2 FT Cycles (30 min, −18–25 °C) / Stability Bias (%) 3 FT Cycles (30 min, −18–25 °C) / Stability Bias (%) Long-Term (2 Weeks, −18 °C) / Stability Bias (%) Autosampler (10 h, 10 °C): N = 3; for Stability Bias (%) Autosampler (10 h, 10 °C): processed plasma sample; for Stability Bias (%) Bench Top (2 h, 25 °C): unprocessed plasma, N = 3, vs fresh QC. The procedure:
Stability of the stock and working solutions was determined in the preliminary studies. […] Patient plasma samples were stored long-term at −80 °C. Since adequate stability of plasma samples was proven at −18 °C, it was deemed acceptable at lower temperatures as well. Lower- and higher-concentration QC samples were prepared in triplicate for each condition and time point and were analyzed against QC samples freshly prepared in triplicate.

Setting [4] is: higher QC level (RIB 2500, ABE 1500, PAL 250, ANA 100, LET 250, FUL 500 ng/mL).
Where [5] appears, read: lower QC level (RIB 62.5, ABE 37.5, PAL 6.2, ANA 2.5, LET 6.25, FUL 12.5 ng/mL).

Turning to `CC(C)(C#N)c1cc(Cn2cncn2)cc(C(C)(C)C#N)c1` [ANA, anastrozole], the “Plasma Concentration” value in series [1] (patient 5, ANA 1 mg daily) is 43.96 ng/mL. For the same compound, the “Expected literature range Cmin–Cmax” value in series [2] was 22–52.6 [27] ng/mL. Besides, in series [3] (setting [4]), the “Stability Bias (%) 1 FT Cycle (30 min, −18–25 °C)” value (“Stability Bias (%) 1 FT Cycle” for short) was found to be 6.65%; the “Stability Bias (%) 2 FT Cycles (30 min, −18–25 °C)” value (“Stability Bias (%) 2 FT Cycles” for short) was determined as 8.39%; the “Stability Bias (%) 3 FT Cycles (30 min, −18–25 °C)” value (from here on “Stability Bias (%) 3 FT Cycles”) is reported as −0.69%; the “Stability Bias (%) Long-Term (2 Weeks, −18 °C)” value (from here on “Stability Bias (%) Long-Term”) is recorded as −0.40%. For the same compound, in series [3] (setting [4]), the “Stability Bias (%) Autosampler (10 h, 10 °C)” value (from here on “Stability Bias (%) Autosampler”) is listed as 4.89% and the “Stability Bias (%) Bench Top (2 h, 25 °C)” value (“Stability Bias (%) Bench Top” below) was −0.62%. For the same compound, in series [3] (setting [5]), the “Stability Bias (%) 1 FT Cycle” value is −7.88%; the “Stability Bias (%) 2 FT Cycles” value is recorded as −2.80%; the “Stability Bias (%) 3 FT Cycles” value was −3.98%; the “Stability Bias (%) Long-Term” value was 3.09%. In addition, in series [3] (setting [5]), the “Stability Bias (%) Autosampler” value was found to be 2.27% and the “Stability Bias (%) Bench Top” value is reported as −10.33%.
Regarding `C[C@]12CC[C@@H]3c4ccc(O)cc4C[C@@H](CCCCCCCCC[S+]([O-])CCCC(F)(F)C(F)(F)F)[C@H]3[C@@H]1CC[C@@H]2O` (stereo partly shown) [FUL, fulvestrant], the “Plasma Concentration” value in series [1] (patient 7, FUL 500 mg monthly, intramuscular) stood at 20.73 ng/mL. Further, in series [1] (patient 8, FUL 500 mg monthly, intramuscular), the “Plasma Concentration” value is 22.69 ng/mL. In series [1] (patient 9, FUL 500 mg monthly, intramuscular), the “Plasma Concentration” value was determined as 22.13 ng/mL. Besides, the “Plasma Concentration” value in series [1] (patient 10, FUL 500 mg monthly, intramuscular) came to 24.56 ng/mL. In series [2], the “Expected literature range Cmin–Cmax” value was 16–25 [29] ng/mL. In series [3] (setting [4]), the “Stability Bias (%) 1 FT Cycle” value was found to be 2.23%; the “Stability Bias (%) 2 FT Cycles” value turned out to be 4.49%; the “Stability Bias (%) 3 FT Cycles” value was −7.51%; the “Stability Bias (%) Long-Term” value is listed as −1.62%. Besides, in series [3] (setting [4]), the “Stability Bias (%) Autosampler” value was −8.06% and the “Stability Bias (%) Bench Top” value is 2.32%. In series [3] (setting [5]), the “Stability Bias (%) 1 FT Cycle” value is given as −14.59%; the “Stability Bias (%) 2 FT Cycles” value was −13.24%; the “Stability Bias (%) 3 FT Cycles” value was −8.90%; the “Stability Bias (%) Long-Term” value is reported as −5.01%. Besides, in series [3] (setting [5]), the “Stability Bias (%) Autosampler” value is 7.38% and the “Stability Bias (%) Bench Top” value is reported as −9.36%.
Consider `N#Cc1ccc(C(c2ccc(C#N)cc2)n2cncn2)cc1` [LET, letrozole], for which the concentration at 1 h in series [1] (human, plasma, patient 4, LET 2.5 mg daily, 1 h after dose administration) was found to be 139 ng/mL. Also, the “Plasma Concentration” value in series [1] (patient 1, LET 2.5 mg daily) amounted to 109.99 ng/mL. Further, the “Plasma Concentration” value in series [1] (patient 2, LET 2.5 mg daily) is 141.11 ng/mL. Further, in series [1] (patient 3, LET 2.5 mg daily), the “Plasma Concentration” value was determined as 146.21 ng/mL. Also, in series [2], the “Expected literature range Cmin–Cmax” value was 28.4–349.2 [28] ng/mL. Also, in series [3] (setting [4]), the “Stability Bias (%) 1 FT Cycle” value was 2.07%; the “Stability Bias (%) 2 FT Cycles” value is −0.26%; the “Stability Bias (%) 3 FT Cycles” value is −7.61%; the “Stability Bias (%) Long-Term” value is −7.75%. In series [3] (setting [4]), the “Stability Bias (%) Autosampler” value is reported as −0.29% and the “Stability Bias (%) Bench Top” value is reported as 6.16%. In series [3] (setting [5]), the “Stability Bias (%) 1 FT Cycle” value is −0.06%; the “Stability Bias (%) 2 FT Cycles” value was −6.52%; the “Stability Bias (%) 3 FT Cycles” value is recorded as −3.50%; the “Stability Bias (%) Long-Term” value was −10.44%. Also, in series [3] (setting [5]), the “Stability Bias (%) Autosampler” value amounted to 6.11% and the “Stability Bias (%) Bench Top” value is recorded as −6.81%.
Consider `CC(=O)c1c(C)c2cnc(Nc3ccc(N4CCNCC4)cn3)nc2n(C2CCCC2)c1=O` [PAL, palbociclib], for which, in series [1] (human, plasma, patient 8, PAL 125 mg daily, sampling day 27 (off-treatment week)), the concentration at 27 day was 7.55 ng/mL. Moreover, in series [1] (patient 9, PAL 125 mg daily, sampling day 28 (off-treatment week)), the “Plasma Concentration (ng/mL)” value was “<LOQ”. Also, the “Plasma Concentration (ng/mL)” value in series [1] (patient 10, PAL 125 mg daily, sampling day 23 (off-treatment week)) was “<LOD”. Also, the “Expected literature range Cmin–Cmax” value in series [2] was 72.8–185.5 [26] ng/mL. Further, in series [3] (setting [4]), the “Stability Bias (%) 1 FT Cycle” value is reported as 6.35%; the “Stability Bias (%) 2 FT Cycles” value is −1.65%; the “Stability Bias (%) 3 FT Cycles” value is reported as −7.90%; the “Stability Bias (%) Long-Term” value is −3.08%. Also, in series [3] (setting [4]), the “Stability Bias (%) Autosampler” value is reported as 14.95% and the “Stability Bias (%) Bench Top” value is reported as −4.37%. Moreover, in series [3] (setting [5]), the “Stability Bias (%) 1 FT Cycle” value amounted to 14.97%; the “Stability Bias (%) 2 FT Cycles” value was determined as 1.86%; the “Stability Bias (%) 3 FT Cycles” value stood at 2.81%; the “Stability Bias (%) Long-Term” value stood at 12.29%. Further, in series [3] (setting [5]), the “Stability Bias (%) Autosampler” value stood at 13.69% and the “Stability Bias (%) Bench Top” value was found to be 3.08%.

Values taken from paper PMC9147789, “Development and Validation of a Novel LC-MS/MS Method for the Simultaneous Determination of Abemaciclib, Palbociclib, Ribociclib, Anastrozole, Letrozole, and Fulvestrant in Plasma Samples: A Prerequisite for Personalized Breast Cancer Treatment” (Pharmaceuticals, 2022).
